From ChEMBL document CHEMBL1201862, “PubChem BioAssay data set” (2004)
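Five compound concentrations were applied to cells in 96-well plates for 48 hours; endpoints were derived by simple linear interpolation of the resulting dose-response curve. GI50 is the concentration that inhibits growth by half.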 The source made the active and inactive calls. Cut-off read from the data, not from the text of the source: active = GI50 up to about 1.1 µM and inactive = higher.

How the values were obtained:
Test in all cases: NCI tumour cell line growth inhibition, 48 h
SNB-78 = test system: SNB-78
KM-20L2 = test system: KM-20L2
HOP-18 = test system: HOP-18
M19-MEL = test system: M19-MEL
LXFL 529 = test system: LXFL 529
DMS-273 = test system: DMS-273
DLD-1 = test system: DLD-1
RXF 631 = test system: RXF 631
XF498 = test system: XF498

Measured: GI50

O=C1/C(=C/c2ccccc2)CN(C(=O)CCN2CCOCC2)C/C1=C\c1ccccc1
inactive: SNB-78 6.4 µM | KM-20L2 1.92 µM | HOP-18 16.7 µM | M19-MEL 2 µM | LXFL 529 2.52 µM | DMS-273 1.87 µM | DLD-1 1.88 µM | RXF 631 7.8 µM

CCO/C=C/C(C)C1(C(=O)OCC)CCCCC1=O (configuration not stated)
inactive: SNB-78 > 100 µM | KM-20L2 > 100 µM | HOP-18 > 100 µM | M19-MEL > 100 µM | LXFL 529 > 100 µM | DMS-273 21.4 µM | DLD-1 > 100 µM | RXF 631 > 100 µM | XF498 > 100 µM

CCOC(=O)C1=C(Nc2ccc(Br)cc2)OCC1=O
inactive: SNB-78 > 100 µM | KM-20L2 > 100 µM | HOP-18 > 100 µM | M19-MEL > 100 µM | LXFL 529 > 100 µM | DMS-273 > 100 µM | DLD-1 > 100 µM

Oc1ccc2c3c1OC1C(=NN=C4CCC5(O)C6Cc7ccc(O)c8c7C5(CCN6CC5CC5)C4O8)CCC4(O)C(C2)N(CC2CC2)CCC314 (configuration not stated)
inactive: SNB-78 62.5 µM | KM-20L2 20.2 µM | HOP-18 > 100 µM | M19-MEL 21.7 µM | LXFL 529 20.8 µM | DMS-273 24.9 µM | DLD-1 46 µM | XF498 19 µM

O=C1CCCC/C(=C/c2ccccc2)N1
inactive: SNB-78 > 100 µM | KM-20L2 > 100 µM | HOP-18 > 100 µM | M19-MEL > 100 µM | LXFL 529 > 100 µM | DMS-273 > 100 µM | DLD-1 > 100 µM | XF498 > 100 µM

COc1ccc(OC)c(NC(=O)CCC/C(CC(=O)c2ccc(O)c(OC)c2)=N\Nc2ccc([N+](=O)[O-])cc2)c1
inactive: SNB-78 43.6 µM | KM-20L2 > 100 µM | HOP-18 > 100 µM | M19-MEL > 100 µM | LXFL 529 32.7 µM | DMS-273 57.3 µM | DLD-1 > 100 µM | RXF 631 96.4 µM | XF498 41.1 µM

NC1=NN(c2ccccc2)C(=O)C1C(=O)C(=O)Nc1nccs1 (configuration not stated)
inactive: SNB-78 > 100 µM | KM-20L2 > 100 µM | HOP-18 > 100 µM | M19-MEL > 100 µM | LXFL 529 > 100 µM | DMS-273 > 100 µM | DLD-1 > 100 µM | RXF 631 > 100 µM

O=C(C(=O)N1CC2C=CC1CC2)c1c[nH]c2ccccc12 (configuration not stated)
inactive: SNB-78 > 100 µM | KM-20L2 > 100 µM | HOP-18 > 100 µM | M19-MEL > 100 µM | LXFL 529 > 100 µM | DMS-273 > 100 µM | DLD-1 > 100 µM | RXF 631 > 100 µM

CC(=O)NC(CCCCNC(=O)NCCCl)C(=O)NCc1ccccc1 (configuration not stated)
inactive: KM-20L2 > 100 µM | HOP-18 > 100 µM | M19-MEL > 100 µM | LXFL 529 > 100 µM | DMS-273 > 100 µM | DLD-1 > 100 µM | RXF 631 > 100 µM | XF498 > 100 µM

O=C1O/C(=C(\Br)c2cccc3ccccc23)c2ccccc21
inactive: SNB-78 30.8 µM | KM-20L2 25.1 µM | HOP-18 19.5 µM | M19-MEL 36.1 µM | LXFL 529 > 47.1 µM | DMS-273 24.5 µM | DLD-1 23.5 µM

Cc1ccc2nc(NC(=O)C(=O)C(C(=O)c3ccc4ccccc4c3)C3OC(=O)c4ccccc43)sc2c1 (configuration not stated)
inactive: SNB-78 4.36 µM | M19-MEL 14.5 µM | LXFL 529 4.35 µM | DLD-1 13 µM

COc1ccc(-c2cc(=O)c3ccccc3[nH]2)c(OC)c1
inactive: SNB-78 > 100 µM | KM-20L2 > 100 µM | M19-MEL > 100 µM | LXFL 529 > 100 µM | DMS-273 > 100 µM | DLD-1 > 100 µM

CC(=O)O[C@H]1CC[C@@]2(C)C(=CC[C@@H]3C2CC[C@]2(C)Nc4[nH]ncc4CC32)C1 (some centres not stated)
inactive: SNB-78 42.7 µM | KM-20L2 27.9 µM | M19-MEL 24.7 µM | LXFL 529 19.9 µM | DMS-273 16.9 µM | DLD-1 32 µM | RXF 631 16.7 µM | XF498 4.1 µM

CC(C)(C)C1CC[C@H]2c3c([nH]c4ccc(Br)cc34)[C@H]3C(=O)N(c4ccccc4)C(=O)[C@H]3[C@H]2C1 (some centres not stated)
inactive: SNB-78 10 µM | KM-20L2 45.9 µM | HOP-18 33 µM | M19-MEL 19.8 µM | LXFL 529 14.3 µM | DMS-273 6.27 µM | DLD-1 27.8 µM | RXF 631 4.13 µM | XF498 16.9 µM

CCC(C)Cn1c(C)nc2c1C(=O)c1ccccc1C2=O (configuration not stated)
inactive: SNB-78 34.4 µM | KM-20L2 31.2 µM | M19-MEL 18.1 µM | LXFL 529 17 µM | DMS-273 9.86 µM | DLD-1 24.6 µM | XF498 22.5 µM

Nc1ncnc2c1sc(=S)n2-c1ccccc1
inactive: SNB-78 > 100 µM | KM-20L2 > 100 µM | HOP-18 > 100 µM | M19-MEL > 100 µM | LXFL 529 > 100 µM | DMS-273 > 100 µM | DLD-1 > 100 µM | XF498 > 100 µM

CCCCCCCCCCCCOP(N)(=O)OCCCCCCCCCCCC
inactive: SNB-78 > 100 µM | M19-MEL > 100 µM | LXFL 529 > 100 µM | DMS-273 > 100 µM | DLD-1 > 100 µM

CC1(C)C(=O)C(C)(C)C1=S
inactive: KM-20L2 > 100 µM | M19-MEL > 100 µM | LXFL 529 > 100 µM | DMS-273 > 100 µM | DLD-1 > 100 µM | XF498 > 100 µM

CCOP(=O)(C/C(O)=C1\C(=O)C(CCCNC(=O)OC(C)(C)C)N(Cc2ccc(OC)c(OC)c2)C1=O)OCC (configuration not stated)
inactive: KM-20L2 > 100 µM | HOP-18 > 100 µM | M19-MEL > 100 µM | LXFL 529 > 100 µM | DMS-273 > 100 µM | DLD-1 > 100 µM | RXF 631 > 100 µM

COC(C)(C)[C@H](O)C(O)CC(C)[C@@H]1CCC23CC12CCC1[C@@]2(C)CCC(OC(C)=O)C(C)(C)C2CC(OC2OC(COC(C)=O)C(O)C(O)C2O)[C@]13C (some centres not stated)
inactive: SNB-78 8.07 µM | HOP-18 11 µM | M19-MEL 3.01 µM | LXFL 529 4.89 µM | DMS-273 2.97 µM | DLD-1 1.83 µM | RXF 631 4.86 µM
active: KM-20L2 1.1 µM

C=C(CN(C)C)C(=O)c1ccccc1[N+](=O)[O-]
inactive: SNB-78 26.7 µM | KM-20L2 23.4 µM | HOP-18 18.7 µM | M19-MEL 17.8 µM | LXFL 529 14.8 µM | DMS-273 18.2 µM | DLD-1 13.4 µM | RXF 631 19 µM | XF498 17.1 µM
